According to patent US11180462B2, “Microbiocidal oxadiazole derivatives” (SYNGENTA PARTICIPATIONS AG, priority 2015, dated 2021):

Key:
[1] = system: Puccinia recondita f. Sp. Tritici; assay: Fungicidal activity against Puccinia recondita f. sp. tritici / wheat / leaf disc curative (brown rust); assay type: in vivo; settings: foliar, 24 h, 200 ppm in the applied formulation, wheat leaf segments, curative (applied 1 day after inoculation), compared to untreated control leaf disks, read-out: disease control
Outline: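 Segments of wheat cv. Kanzler were laid on agar and inoculated with a spore suspension of the rust, then held in darkness at 19° C and 75% relative humidity. One day later the water-diluted formulated compound was applied, with incubation continued under a 12 h light/dark cycle.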

[2] = system: Puccinia recondita f. Sp. Tritici; assay: Fungicidal activity against Puccinia recondita f. sp. tritici / wheat / leaf disc preventative (brown rust); assay type: in vivo; settings: foliar, 200 ppm in the applied formulation, wheat leaf segments, preventative, compared to untreated control leaf disks, read-out: disease control
Outline: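 Percent disease control relative to untreated check segments is scored once disease develops, 7 to 9 days after application. Wheat cv. Kanzler segments receive compound spray (200 ppm in formulation) one day before spore inoculation, then sit at 19° C. and 75% rh under 12 h light/12 h dark.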

[3] = system: Glomerella lagenarium (Colletotrichum lagenarium); assay: Fungicidal activity against Glomerella lagenarium (Colletotrichum lagenarium) liquid culture / cucumber / preventative (anthracnose); assay type: cell-based; settings: Colletotrichum orbiculare; 20 ppm in the applied formulation; liquid culture (PDB), growth inhibition measured photometrically after 3 to 4 days; compared to untreated control; read-out: disease control
Outline: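 Percent activity against the untreated check was derived from photometric growth measurements made 2 to 7 days after conidia in potato dextrose broth were combined with compound at 20 ppm. Cultures were kept dark at 24 °C and 96% humidity.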

COCCOCC(=O)N(CCOC)Cc1ccc(-c2noc(C(F)(F)F)n2)cc1 [Compound 1.340, 2-(2-methoxyethoxy)-N-(2-methoxyethyl)-N-[[4-[5-(trifluoromethyl)-1,2,4-oxadiazol-3-yl]phenyl]methyl]-acetamide]
≥ 80%: pest or weed control at 200 ppm [1] | pest or weed control at 200 ppm [2] | inhibition of growth at 20 ppm [3]

CC(C)N(C)C(=O)N(C)Cc1ccc(-c2noc(C(F)(F)F)n2)cc1 [Compound 3.79, 1-isopropyl-1,3-dimethyl-3-[[4-[5-(trifluoromethyl)-1,2,4-oxadiazol-3-yl]phenyl]methyl]urea]
≥ 80%: pest or weed control at 200 ppm [1] | pest or weed control at 200 ppm [2] | inhibition of growth at 20 ppm [3]

CCC(C)N(Cc1ccc(-c2noc(C(F)(F)F)n2)cc1)C(=O)CC1CC1 (stereo not drawn) [Compound 1.375, 2-cyclopropyl-N-sec-butyl-N-[[4-(5-(trifluoromethyl)-1,2,4-oxadiazol-3-yl]phenyl]methyl]-acetamide]
≥ 80%: pest or weed control at 200 ppm [1] | pest or weed control at 200 ppm [2] | inhibition of growth at 20 ppm [3]

COCCC(=O)N(CCO)Cc1ccc(-c2noc(C(F)(F)F)n2)cc1 [Compound 1.713, N-(2-hydroxyethyl)-3-methoxy-N-[[4-[5-(trifluoromethyl)-1,2,4-oxadiazol-3-yl]phenyl]methyl]-propanamide]
≥ 80%: pest or weed control at 200 ppm [1] | pest or weed control at 200 ppm [2] | inhibition of growth at 20 ppm [3]

CCN(Cc1ccc(-c2noc(C(F)(F)F)n2)cc1)C(=O)CCl [Compound 1.502, 2-chloro-N-ethyl-N-[[4-[5-(trifluoromethyl)-1,2,4-oxadiazol-3-yl]phenyl]methyl]-acetamide]
≥ 80%: pest or weed control at 200 ppm [1] | pest or weed control at 200 ppm [2] | inhibition of growth at 20 ppm [3]

C#CC(=O)N(Cc1ccc(-c2noc(C(F)(F)F)n2)cc1)CC1CCCO1 (stereo not drawn) [Compound 1.434, N-(tetrahydrofuran-2-ylmethyl)-N-[[4-[5-(trifluoromethyl)-1,2,4-oxadiazol-3-yl]phenyl]methyl] prop-2-ynamide]
≥ 80%: pest or weed control at 200 ppm [1] | pest or weed control at 200 ppm [2] | inhibition of growth at 20 ppm [3]

C#CCN(Cc1ccc(-c2noc(C(F)(F)F)n2)cc1)C(=O)C1(C(F)(F)F)CCC1 [Compound 1.161, N-prop-2-ynyl-1-(trifluoromethyl)-N-[[4-[5-(trifluoromethyl)-1,2,4-oxadiazol-3-yl]phenyl]methyl]-cyclobutane-carboxamide]
≥ 80%: pest or weed control at 200 ppm [1] | pest or weed control at 200 ppm [2] | inhibition of growth at 20 ppm [3]

CON(C(=O)C1CC1)C(C)c1ccc(-c2noc(C(F)(F)F)n2)cc1 (stereo not drawn) [Compound 1.279, N-methoxy-N-[1-[4-[5-(trifluoromethyl)-1,2,4-oxadiazol-3-yl]phenyl]ethyl]-cyclopropane-carboxamide]
≥ 80%: pest or weed control at 200 ppm [1] | pest or weed control at 200 ppm [2] | inhibition of growth at 20 ppm [3]

CCN(Cc1ccc(-c2noc(C(F)(F)F)n2)cc1)C(=O)CNC(C)=O [Compound 1.501, 2-acetamido-N-ethyl-N-[[4-[5-(trifluoromethyl)-1,2,4-oxadiazol-3-yl]phenyl]methyl]-acetamide]
≥ 80%: pest or weed control at 200 ppm [1] | pest or weed control at 200 ppm [2] | inhibition of growth at 20 ppm [3]

CC(C)(C)C(=O)N(Cc1ccc(-c2noc(C(F)(F)F)n2)cc1)CC1CC1 [Compound 1.225, N-(cyclopropylmethyl)-2,2-dimethyl-N-[[4-[5-(trifluoromethyl)-1,2,4-oxadiazol-3-yl]phenyl]methyl]-propanamide]
≥ 80%: pest or weed control at 200 ppm [1] | pest or weed control at 200 ppm [2] | inhibition of growth at 20 ppm [3]

O=C(CC(F)(F)F)N(Cc1ccc(-c2noc(C(F)(F)F)n2)cc1)CC1CCCO1 (stereo not drawn) [Compound 1.448, 3,3,3-trifluoro-N-(tetrahydrofuran-2-ylmethyl)-N-[[4-[5-(trifluoromethyl)-1,2,4-oxadiazol-3-yl]phenyl]methyl]-propanamide]
≥ 80%: pest or weed control at 200 ppm [1] | pest or weed control at 200 ppm [2] | inhibition of growth at 20 ppm [3]

CCCC(C)(C)C(=O)N(Cc1ccc(-c2noc(C(F)(F)F)n2)cc1)OC [Compound 1.10, N-methoxy-2,2-dimethyl-N-[[4-[5-(trifluoromethyl)-1,2,4-oxadiazol-3-yl]phenyl]methyl]-pentanamide]
≥ 80%: pest or weed control at 200 ppm [1] | pest or weed control at 200 ppm [2] | inhibition of growth at 20 ppm [3]

CCC(C)N(Cc1ccc(-c2noc(C(F)(F)F)n2)cc1)C(=O)C1CCCN1C(C)=O (stereo not drawn) [Compound 1.400, 1-acetyl-N-sec-butyl-N-[[4-[5-(trifluoromethyl)-1,2,4-oxadiazol-3-yl]phenyl]methyl]-pyrrolidine-2-carboxamide]
≥ 80%: pest or weed control at 200 ppm [1] | pest or weed control at 200 ppm [2] | inhibition of growth at 20 ppm [3]

CC1(C(=O)N(Cc2ccc(-c3noc(C(F)(F)F)n3)cc2)CC2CCCO2)CC1 (stereo not drawn) [Compound 1.431, 1-methyl-N-(tetrahydrofuran-2-ylmethyl)-N-[[4-[5-(trifluoromethyl)-1,2,4-oxadiazol-3-yl]phenyl]methyl]-cyclopropane-carboxamide]
≥ 80%: pest or weed control at 200 ppm [1] | pest or weed control at 200 ppm [2] | inhibition of growth at 20 ppm [3]

CC#CC(=O)N(CCOC)Cc1ccc(-c2noc(C(F)(F)F)n2)cc1 [Compound 1.323, N-(2-methoxyethyl)-N-[[4-[5-(trifluoromethyl)-1,2,4-oxadiazol-3-yl]phenyl]methyl]but-2-yaamide]
≥ 80%: pest or weed control at 200 ppm [1] | pest or weed control at 200 ppm [2] | inhibition of growth at 20 ppm [3]

CON(Cc1ccc(-c2noc(C(F)(F)F)n2)cc1)C(=O)COC(F)F [Compound 1.785, 2-(difuoromethoxy)-N-methoxy-N-[[4-[5-(trifluoromethyl)-1,2,4-oxadiazol-3-yl]phenyl]methyl]-acetamide]
≥ 80%: pest or weed control at 200 ppm [1] | pest or weed control at 200 ppm [2] | inhibition of growth at 20 ppm [3]

COCCN(Cc1ccc(-c2noc(C(F)(F)F)n2)cc1)C(=O)COC [Compound 1.328, 2-methoxy-N-(2-methoxyethyl)-N-[[4-[5-(trifluoromethyl)-1,2,4-oxadiazol-3-yl]phenyl]methyl]-acetamide]
≥ 80%: pest or weed control at 200 ppm [1] | pest or weed control at 200 ppm [2] | inhibition of growth at 20 ppm [3]

C#CC(=O)N(CCOC)Cc1ccc(-c2noc(C(F)(F)F)n2)cc1 [Compound 1.347, N-(2-methoxyethyl)-N-[[4-[5-(trifluoromethyl)-1,2,4-oxadiazol-3-yl]phenyl]methyl]prop-2-ynamide]
≥ 80%: pest or weed control at 200 ppm [1] | pest or weed control at 200 ppm [2] | inhibition of growth at 20 ppm [3]

CCN(Cc1ccc(-c2noc(C(F)(F)F)n2)cc1)C(=O)N(CCOC)CCOC [Compound 3.102, 1-ethyl-3,3-bis(2-methoxyethyl)-1-[[4-[5-(trifluoromethyl)-1,2,4-oxadiazol-3-yl]phenyl]methyl]urea]
≥ 80%: pest or weed control at 200 ppm [1] | pest or weed control at 200 ppm [2] | inhibition of growth at 20 ppm [3]

COCCOCC(=O)N(Cc1ccc(-c2noc(C(F)(F)F)n2)cc1)CC1CCCO1 (stereo not drawn) [Compound 1.427, 2-(2-methoxyethoxy)-N-(tetrahydrofuran-2-ylmethyl)-N-[[4-[5-(trifluoromethyl)-1,2,4-oxadiazol-3-yl]phenyl]methyl]-acetamide]
≥ 80%: pest or weed control at 200 ppm [1] | pest or weed control at 200 ppm [2] | inhibition of growth at 20 ppm [3]

COCCN(Cc1ccc(-c2noc(C(F)(F)F)n2)cc1)C(=O)C1=CCCC1 [Compound 1.333, N-(2-methoxyethyl)-N-[[4-[5-(trifluoromethyl)-1,2,4-oxadiazol-3-yl]phenyl]methyl]-cyclopentene-1-carboxamide]
≥ 80%: pest or weed control at 200 ppm [1] | pest or weed control at 200 ppm [2] | inhibition of growth at 20 ppm [3]

CC(=O)OCC(=O)N(Cc1ccc(-c2noc(C(F)(F)F)n2)cc1)CC1CCCO1 (stereo not drawn) [Compound 1.435, [2-oxo-2-[tetrahydrofuran-2-ylmethyl-[[4-[5-(trifluoromethyl)-1,2,4-oxadiazol-3-yl]phenyl]methyl]-amino]ethyl] acetate]
≥ 80%: pest or weed control at 200 ppm [1] | pest or weed control at 200 ppm [2] | inhibition of growth at 20 ppm [3]

CCOC(=O)CN(C)C(=O)N(C)Cc1ccc(-c2noc(C(F)(F)F)n2)cc1 [Compound 3.73, ethyl 2-[methyl-[methyl-[[4-[5-(trifluoromethyl)-1,2,4-oxadiazol-3-yl]phenyl]methyl]-carbamoyl- ]amino]acetate]
≥ 80%: pest or weed control at 200 ppm [1] | pest or weed control at 200 ppm [2] | inhibition of growth at 20 ppm [3]
